Measured values reported in ChEMBL document CHEMBL1131911, “Synthesis of 2-(2-adamantyl)piperidines and structure anti-influenza virus A activity relationship study using a combination of NMR spectroscopy and molecular modeling” (1999).
≈ marks a conversion by molar mass, not a printed value.

Legend:
MDCK [1] = experiment: Anti-influenza virus activity was evaluated in Madin-Darby canine kidney (MDCK) cells against influenza A H3N2 (X31); type: functional; details: Canis lupus familiaris
MDCK [2] = experiment: Anti-influenza virus activity was evaluated in Madin-Darby canine kidney (MDCK) cells against influenza A H2N2 strain (A2 Japan/305/57); type: functional; details: Canis lupus familiaris
MDCK [3] = experiment: Concentration required to reduce the viability of MDCK cells; type: functional, Canis lupus familiaris
MDCK [4] = experiment: Anti-influenza virus activity was evaluated in Madin-Darby canine kidney (MDCK) cells against influenza B (Hong Kong/5/72); type: functional; details: Canis lupus familiaris

SMILES | MIC50 (MDCK [1]) [µM] | MIC50 (MDCK [2]) [µM] | MTC50 (MDCK [3]) [µM] | MIC50 (MDCK [4]) [µM]
NC(=O)c1ncn([C@@H]2O[C@H](CO)[C@@H](O)[C@H]2O)n1 [RIBAVIRIN] | 41 (≈ 10 µg/mL) | 31.1 (≈ 7.59 µg/mL) | >1025 | 41 (≈ 10 µg/mL)
CCN1CCCCC1C1C2CC3CC(C2)CC1C3 (stereo unspecified) | > 28 | > 28 | 143 | > 28
CC(N)C12CC3CC(CC(C3)C1)C2 (stereo unspecified) [RIMANTADINE] | > 56 | 20.9 (≈ 3.75 µg/mL) | 1160 | > 93
NC12CC3CC(CC(C3)C1)C2 [AMANTADINE] |  | 28.3 (≈ 4.28 µg/mL) | 1333 | 
CN1CCCCC1C1C2CC3CC(C2)CC1C3 (stereo unspecified) | > 143 | > 143 | 977 | > 143
C1CCC(C2C3CC4CC(C3)CC2C4)NC1 (stereo unspecified) | > 977 | 7.8 (≈ 1.71 µg/mL) | >977 | > 977
C1CCN(CC2CC2)C(C2C3CC4CC(C3)CC2C4)C1 (stereo unspecified) | > 143 | 143 (≈ 39.1 µg/mL) | 977 | > 143
